Columns and labels:
[1] = molecular target: T1, rhesus H3 receptor (Macaca mulatta, UniProt Q865E1); test: Rhesus H3 [3H]-methylhistamine radioligand binding assay; set-up: species or system rhesus monkey (Macacca Mulatta); conditions: [3H]-Methylhistamine 2 nM, rhesus H3 membranes, WGA SPA beads, Cheng-Prusoff
Description: (§1) Rhesus H3 membranes were prepared from the Flp-In T-REx 293 Cell Line (Invitrogen) stably transfected with pcDNA5/FRT/TO (Invitrogen) containing the rhesus monkey (Macacca Mulatta) 445 amino acid H3 receptor. (Genbank #AY231164). Stably transfected cultures were amplified in tissue culture flasks by standard tissue culture methods and induced to express rhesus H3 by exposure to 500 ng/ml tetracycline (Cellgro) for 24 hours. After induction, cells were dissociated from flasks utilizing Cell Stripper (Cellgro). Cells were centrifuged (1K×g, 5 min) and pellet frozen in an ethanol-dry ice bath to disrupt cell membranes. Frozen cell pellet was re-suspended in 5 mM HEPES (pH 7.4, Invitrogen) at 10 ml/1000 cm2 of harvested cells. The cell suspension was drawn through an 18 gauge needle (2-3×) followed by a 23 gauge needle (2-3×) to further disrupt cell membranes. The cell suspension was centrifuged (40K×g, 30 min). Cell membrane pellet was re-suspended in 5 mM HEPES (pH 7.4, Invitrogen) at a final protein concentration of 10 mg/ml. Rhesus H3 membranes were stored under liquid nitrogen prior to use in [3H]-Methylhistamine and GTP S radioligand binding assays.
Rhesus H3 radioligand binding assay was performed using rhesus H3 receptor membranes (prepared as described above), [3H]-Methylhistamine (Perkin Elmer) and WGA SPA beads (wheat germ agglutinin scintillation proximity assay) beads (Amersham). The assay was performed in 96-well Opti-Plates (Packard). Each reaction contained 50 μl rhesus H3 membranes (20-30 μg total protein), 50 μl WGA SPA beads (0.1 μg) and 50 μl of 83 Ci/mmol [^3H]-Methylhistamine (final concentration 2 nM) and 50 μl of tested compound. The compounds of this invention and/or vehicle were diluted with binding buffer from 10 mM DMSO stocks. Assay plates were sealed with TopSeal (Perkin Elmer) and mixed on shaker (25° C., 1 hour). Assay plates were read on TopCount scintillation counter (Packard). Results were analyzed by Hill transformation and Ki values were determined by Cheng-Prusoff equation.

[2] = molecular target: T1, rhesus H3 receptor; test: GTPγS radioligand binding assay, inhibition of rhesus H3 constitutive functional activity (inverse agonism); type: biochemical, rhesus monkey (Macacca Mulatta); set-up: concentration or dose not given beside the values; conditions: rhesus H3 cell membranes, relative to basal levels
Description: as §1

T1 sequence (Q865E1 1-445): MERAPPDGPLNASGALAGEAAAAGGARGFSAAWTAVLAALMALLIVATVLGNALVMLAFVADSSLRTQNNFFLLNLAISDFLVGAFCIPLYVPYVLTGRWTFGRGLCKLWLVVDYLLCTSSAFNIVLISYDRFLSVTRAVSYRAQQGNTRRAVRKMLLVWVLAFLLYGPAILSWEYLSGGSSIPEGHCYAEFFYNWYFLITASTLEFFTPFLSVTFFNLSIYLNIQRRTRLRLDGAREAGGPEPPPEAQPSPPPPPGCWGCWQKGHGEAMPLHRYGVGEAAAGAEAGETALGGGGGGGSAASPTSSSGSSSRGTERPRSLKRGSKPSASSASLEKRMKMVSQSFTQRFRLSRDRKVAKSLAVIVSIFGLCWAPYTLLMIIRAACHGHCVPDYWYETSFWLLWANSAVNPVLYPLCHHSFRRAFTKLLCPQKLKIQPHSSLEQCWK

Row | Structure (SMILES) | Ki [1] [nM] | Inverse Agonism: % inhibition of Basal GTPγS binding in Rhesus H3 [2] [%]
1 | C[C@H]1CCCN1C1CCN(c2ccc(N3CCC4(CCN(C(=O)c5ccc(F)cc5)CC4)C3=O)cc2)CC1 [Example 51, 8-(4-Fluoro-benzoyl)-2-{4-[4-(2S-2-methyl-pyrrolidin-1-yl)-piperidin-1-yl]-phenyl}-2,8-diaza-spiro[4.5]decan-1-one] | 0.08 | −17
2 | C[C@H]1CCCN1C1CCN(c2ccc(N3CCC4(CCN(C(=O)C5CCCCC5)CC4)C3=O)c(F)c2)CC1 [Example 52, 8-Cyclohexanecarbonyl-2-{2-fluoro-4-[4-(2S-2-methyl-pyrrolidin-1-yl)-piperidin-1-yl]-phenyl}-2,8-diaza-spiro[4.5]decan-1-one] | 0.2 | −24
3 | C[C@H]1CCCCN1[C@H]1CCN(c2ccc(N3CCC4(CCN(S(=O)(=O)c5ccc(F)cc5)CC4)C3=O)cc2)C1 [Example 53, 8-(4-Fluoro-benzenesulfonyl)-2-{4-[3-((2S,3′S)-2-methyl-piperidin-1-yl)-pyrrolidin-1-yl]-phenyl}-2,8-diaza-spiro[4.5]decan-1-one] | 1.9 | −13
4 | C[C@H]1CCCCN1[C@H]1CCN(c2ccc(N3CCC4(CCN(C(=O)C5CCOCC5)CC4)C3=O)cc2)C1 [Example 54, 2-{4-[3-((2S,3′S)-2-Methyl-piperidin-1-yl)-pyrrolidin-1-yl]-phenyl}-8-(tetrahydro-pyran-4-carbonyl)-2,8-diaza-spiro[4.5]decan-1-one] | 3.3 | −24
5 | C[C@H]1CCCCN1[C@H]1CCN(c2ccc(N3CCC4(CCN(C(=O)C5CCCC5)CC4)C3=O)c(C(F)(F)F)c2)C1 [Example 55, 8-Cyclopentanecarbonyl-2-{4-[3-((2S,3′S)-2-methyl-piperidin-1-yl)-pyrrolidin-1-yl]-2-trifluoromethyl-phenyl}-2,8-diaza-spiro[4.5]decan-1-one] | 2.1 | −27
6 | C[C@H]1CCCN1C1CCN(c2ccc(N3CCC4(CCN(CC5CC5)CC4)C3=O)c(F)c2)CC1 [Example 56, 8-Cyclopropylmethyl-2-{2-fluoro-4-[4-(2S-2-methyl-pyrrolidin-1-yl)-piperidin-1-yl]-phenyl}-2,8-diaza-spiro[4.5]decan-1-one] | 0.04 | −23
7 | C[C@H]1CCCN1C1CCN(c2ccc(N3CCC4(CCN(CC5CCCC5)CC4)C3=O)c(F)c2)CC1 [Example 57, 8-Cyclopentyl methyl-2-{2-fluoro-4-[4-(2S-2-methyl-pyrrolidin-1-yl)-piperidin-1-yl]-phenyl}-2,8-diaza-spiro[4.5]decan-1-one] | 0.1 | −21
8 | C[C@H]1CCCCN1[C@H]1CCN(c2ccc(N3CCC4(CCN(CC5CCCCC5)CC4)C3=O)c(C(F)(F)F)c2)C1 [Example 58, 8-Cyclohexyl methyl-2-{4-[3-((2S,3′S)-2-methyl-piperidin-1-yl)-pyrrolidin-1-yl]-2-trifluoromethyl-phenyl}-2,8-diaza-spiro[4.5]decan-1-one] | 0.15 | −19
9 | C[C@H]1CCCCN1[C@H]1CCN(c2ccc(N3CCC4(CCN(CC5CCOCC5)CC4)C3=O)c(F)c2)C1 [Example 59, 2-{2-Fluoro-4-[3-((2S,3′S)-2-methyl-piperidin-1-yl)-pyrrolidin-1-yl]-phenyl}-8-(tetrahydro-pyran-4-ylmethyl)-2,8-diaza-spiro[4.5]decan-1-one] | 4.6 | −19
10 | C[C@H]1CCCN1[C@H]1CCN(c2ccc(N3CCC4(CCN(C(=O)Cc5ccccc5)CC4)C3=O)c(C(F)(F)F)c2)C1 [Example 60, 2-[4-((2S,3′S)-2-Methyl-[1,3′]bipyrrolidinyl-1′-yl)-2-trifluoromethyl-phenyl]-8-phenylacetyl-2,8-diaza-spiro[4.5]decan-1-one] | 144 | −19

Source: patent US8604046B2, “Substituted piperidine spiro pyrrolidinone and piperidinone, preparation and therapeutic use thereof” (Sanofi, priority 2008, dated 2013)
